# Laboratory results reported in US20240024403A1, “Compositions and Methods for Managing Weight” (Unigen, Inc., priority 2012, published 2024).
# Assay: High fat diet induced obesity (DIO) mouse model
# Type: in vivo, C57CL/6J mice
# Set-up: Epididymal Fat weight / Retroperitoneal Fat weight / Total Fat (sum of the three fat deposits) / Retroperitoneal Fat / Total Fat / Epididymal Fat, absolute weight / Retroperitoneal Fat, absolute weight: unit not given here
# Settings: DIO mice; for Hepatocellular ballooning (0-2) / Lobular Inflammation (0-3) / NSAH (sum) / Steatosis (0-3): liver pathology score
# Protocol: C57CL/6J mice aged 4-6 weeks (Korea Research Institute of Bioscience & Biotechnology, Ohchang, Korea) were housed in Polycarbonate cages (five mice per cage) in a room with a 12 hr:12 hr light-dark cycle and an ambient temperature of 24° C. All the mice were fed a commercial chow diet for 1 week after arrival in the animal facility. Mice were then divided into normal and obesity groups and fed with normal diet (ND) and high fat diets (HFD) respectively. The HFD group was divided into multiple treatment groups: a high fat diet vehicle group (HFD), an orlistat (purchased as OTC drug Alli®) positive control treatment group (ORI, 40 mg/kg of animal weight, 2 times/day) and optionally a sibutramine positive control treatment group (10 mg/kg, 1 time/day). The HFD contained 340 g of fat/kg of HFD (310 g lard plus 30 g soybean oil; Harlan Laboratories, USA). The HFD was formulated to provide 60% of the total energy generated by the diet from fat by replacing carbohydrate energy with lard and soybean oil, whereas the normal diet (ND) group was fed a diet providing only 18% of the total diet energy from fat(Harlan Laboratories, USA).
# Body weight was measured once each week and feed intake was measured twice per week. At the end of the experimental period, following a 12 hr. fasting period, the animals were anesthetized with ether, and blood was drawn from the abdominal vein. Liver and kidney and adipose tissues (epididymal, retroperitoneal, perirenal adipose tissues) were removed from each animal, rinsed with physiological saline, and weighed. Serum concentrations of glucose, total cholesterol, triglycerides, and LDL-cholesterol were determined using automatic analyzer (INTEGRA 400, Roche, Germany). Statistical significance of test results was measured using the Student's t-test.
# [1] = G1-G4 1000 mg/kg oral gavage two times per day
# [2] = G1-G4 1000 mg/kg oral gavage two times per day, in g (unit assumed)
# [3] = G1 = 800 mg/kg orally twice a day
# [4] = G1 = 1,100 mg/kg orally twice a day
# [5] = G1 = 1,200 mg/kg orally twice a day
# [6] = Mean score, G1 1,300 mg/kg twice a day
# [7] = Mean, Composition 11 (G1) 1,300 mg/kg twice a day, oral
# [8] = Mean, G1 1,300 mg/kg twice a day
# [9] = SIB 10 mg/kg, ORI 40 mg/kg, Mutamba extract 32 (G1) 1000 mg/kg, mean
# [10] = SIB 10 mg/kg, ORI 40 mg/kg, Mutamba extract 33-2 G1 1000 mg/kg, mean
# [11] = combination (1:1) 2000 mg/kg twice a day, group mean
# [12] = combination (5:1) 1200 mg/kg twice a day by gavage, group mean
# [13] = combination (5:1) 1200 mg/kg twice a day, biochemistry parameters, Table 85, first print
# [14] = combination (5:1) 1200 mg/kg twice a day, biochemistry parameters, Table 85, second print
# [15] = combination (10:1) 1100 mg/kg twice a day, biochemistry parameter
# [16] = combination (10:1) 1100 mg/kg twice a day, group mean
# [17] = plasma, Mean, G1 1,300 mg/kg twice a day
structure (smiles),measurement,setting,value
"CCCCCCCCCCC[C@@H](C[C@@H]1OC(=O)[C@H]1CCCCCC)OC(=O)[C@H](CC(C)C)NC=O [ORI, orlistat]",Food Intake,[1],2.675 g/day
same,Weight Gain,[1],0.015 g/day
same,"Absolute Organ Weight, Epididymal Fat",[2],1.998
same,"Absolute Organ Weight, Liver",[2],1.184
same,ALP,[3],177.35 U/L
same,ALT,[3],23.03 U/L
same,AST,[3],51.40 U/L
same,Absolute Organ Weight: Epididymal fat,[3],2.03 g
same,Absolute Organ Weight: Liver,[3],1.19 g
same,Absolute Organ Weight: PeriRenal fat,[3],0.29 g
same,Absolute Organ Weight: Retroperitoneal fat,[3],0.5 g
same,Body Weight Gain,[3],-0.004 g/day
same,Food Intake,[3],3.147 g/day
same,LDL-C,[3],4.28 mg/dL
same,T-chol,[3],155.83 mg/dL
same,TG,[3],88.33 mg/dL
same,TP,[3],5.08 g/dL
same,ALT,[4],23.03 U/L
same,AST,[4],51.40 U/L
same,Absolute Organ Weight: Epididymal Fat,[4],2.03 g
same,Absolute Organ Weight: Liver,[4],1.19 g
same,Absolute Organ Weight: PeriRenal Fat,[4],0.29 g
same,Absolute Organ Weight: Retroperitoneal Fat,[4],0.5 g
same,Body Weight Gain,[4],-0.004 g/day
same,Food Intake,[4],3.147 g/day
same,LDL-C,[4],4.28 mg/dL
same,T-chol,[4],155.83 mg/dL
same,TG,[4],88.33 mg/dL
same,TP,[4],5.08 g/dL
same,ALT,[5],23.03 U/L
same,AST,[5],51.40 U/L
same,Absolute Organ Weight: Epididymal Fat,[5],2.03 g
same,Absolute Organ Weight: Liver,[5],1.19 g
same,Absolute Organ Weight: PeriRenal Fat,[5],0.29 g
same,Absolute Organ Weight: Retroperitoneal Fat,[5],0.5 g
same,Food Intake,[5],3.147 g/day
same,LDL-C,[5],4.28 mg/dL
same,T-chol,[5],155.83 mg/dL
same,TG,[5],88.33 mg/dL
same,TP,[5],5.08 g/dL
same,Weight Gain,[5],-0.004 g/day
same,Liver pathology: Hepatocellular ballooning (0-2),[6],0.33
same,Liver pathology: Lobular Inflammation (0-3),[6],1.50
same,Liver pathology: Steatosis (0-3),[6],0.33
same,Body Weight Gain,[7],-0.004 g/day
same,Food Intake,[7],3.147 g/day
same,ALP,[8],177.35 U/L
same,ALT,[8],23.03 U/L
same,AST,[8],51.40 U/L
same,Absolute Organ Weight: Epididymal Fat,[8],2.03 g
same,Absolute Organ Weight: Liver,[8],1.19 g
same,Absolute Organ Weight: PeriRenal Fat,[8],0.29 g
same,Absolute Organ Weight: Retroperitoneal Fat,[8],0.5 g
same,HDL-C,[8],75.57 mg/dL
same,LDL-C,[8],4.28 mg/dL
same,TP,[8],5.08 g/dL
same,FER (Food efficiency ratio),"Mean, body weight gain (g/day)/food intake (g/day), G1 1,300 mg/kg twice a day",−0.001
same,Liver pathology: NSAH (sum),"Mean, sum of scores, G1 1,300 mg/kg twice a day",2.17
same,Absolute organ weight: Total Fat,"Mean, sum of the three fat pads, G1 1,300 mg/kg twice a day",2.82 g
same,FER (Food efficiency ratio),"ORI group, mean, Table 136",0.000
same,Food Intake,"ORI group, mean, Table 136",3.195 g/day
same,Weight Gain,"ORI group, mean, Table 136",0.000 g/day
same,ALT,"ORI group, mean, Table 137",21.83 U/L
same,AST,"ORI group, mean, Table 137",65.65 U/L
same,Glu,"ORI group, mean, Table 137",194.00 mg/dL
same,HDL-C,"ORI group, mean, Table 137",62.42 mg/dL
same,LDL-C,"ORI group, mean, Table 137",4.03 mg/dL
same,T-chol,"ORI group, mean, Table 137",137.33 mg/dL
same,TG,"ORI group, mean, Table 137",27.83 mg/dL
same,"Epididymal Fat, absolute weight","ORI group, mean, Table 138",2.08
same,"Liver, absolute organ weight","ORI group, mean, Table 138",0.99 g
same,"Perirenal Fat, absolute weight","ORI group, mean, Table 138",0.28
same,"Retroperitoneal Fat, absolute weight","ORI group, mean, Table 138",0.57
same,Total Fat (sum of the three fat pads),"ORI group, mean, Table 138",2.94
same,Average Body Weight Gain,[9],0.038 g/day
same,Average Food Intake,[9],2.826 g/day
same,Body Weight Gain,[10],0.093 g/day
same,Food Intake,[10],2.769 g/day
same,FER (Food efficiency ratio),"combination (1:1) 2000 mg/kg twice a day, FER = body weight gain/food intake",0.000
same,Food Intake,[11],3.961 g/day
same,Weight Gain,[11],-0.002 g/day
same,FER (Food efficiency ratio),"combination (5:1) 1200 mg/kg twice a day by gavage, FER = body weight gain/food intake",0.000
same,Food Intake,[12],3.961 g/day
same,Weight Gain,[12],-0.002 g/day
same,Glu,[13],225.50 mg/dL
same,LDL-C,[13],3.30 mg/dL
same,T-chol,[13],134.00 mg/dL
same,TG,[13],62.50 mg/dL
same,Glu,[14],225.50 mg/dL
same,LDL-C,[14],3.30 mg/dL
same,T-chol,[14],134.00 mg/dL
same,TG,[14],62.50 mg/dL
same,FER (Food efficiency ratio),"combination (10:1) 1100 mg/kg twice a day, FER = body weight gain/food intake",0.000
same,Glu,[15],225.50 mg/dL
same,T-chol,[15],134.00 mg/dL
same,TG,[15],62.50 mg/dL
same,Food Intake,[16],3.961 g/day
same,Weight Gain,[16],-0.002 g/day
same,Hepatocellular ballooning (0-2),"ORI group, mean, Table 139",0.67
same,Lobular Inflammation (0-3),"ORI group, mean, Table 139",1.33
same,NSAH (sum),"ORI group, mean, Table 139",2.67
same,Steatosis (0-3),"ORI group, mean, Table 139",0.67
same,Hepatocellular ballooning (0-2),"mean, Table 133",0.33
same,Lobular Inflammation (0-3),"mean, Table 133",1.50
same,NSAH (sum),"mean, Table 133",2.17
same,Steatosis (0-3),"mean, Table 133",0.33
same,Glu,[17],269.17 mg/dL
same,T-chol,[17],156 mg/dL
same,TG,[17],88.3 mg/dL
same,"Absolute Organ Weight, Total Fat","sum of the three fat pads (epididymal, retroperitoneal, perirenal), in g (unit assumed)",2.952
same,Total Fat,"sum of the three fat pads, G1 = 800 mg/kg orally twice a day",2.82
same,Total Fat,"sum of the three fat pads, G1 = 1,100 mg/kg orally twice a day",2.82
same,Total Fat,"sum of the three fat pads, G1 = 1,200 mg/kg orally twice a day",2.82
same,Total Weight,"week 0, G1 = 800 mg/kg orally twice a day, in g (unit assumed)",40.22
same,Total Weight,"week 0, G1 = 1,100 mg/kg orally twice a day, in g (unit assumed)",40.22
same,Total Body Weight,"week 0, G1 = 1,200 mg/kg orally twice a day, in g (unit assumed)",40.22
same,Total Weight,"week 0, ORI group, mean, Table 134, in g (unit assumed)",38.61
same,Total Body Weight,"week 0, ORI group, mean, Table 145, in g (unit assumed)",40.22
same,Weight Gain,"week 1, G1 = 800 mg/kg orally twice a day",−2.24
same,Total Weight,"week 1, G1 = 800 mg/kg orally twice a day, in g (unit assumed)",37.98
same,Weight Gain,"week 1, G1 = 1,100 mg/kg orally twice a day",−2.24
same,Total Weight,"week 1, G1 = 1,100 mg/kg orally twice a day, in g (unit assumed)",37.98
same,Weight Gain,"week 1, G1 = 1,200 mg/kg orally twice a day",−2.24
same,Total Body Weight,"week 1, G1 = 1,200 mg/kg orally twice a day, in g (unit assumed)",37.98
same,Total Weight,"week 1, ORI group, mean, Table 134, in g (unit assumed)",33.17
same,Weight Gain,"week 1, ORI group, mean, Table 135",−5.43
same,Total Body Weight,"week 1, ORI group, mean, Table 145, in g (unit assumed)",37.98
same,Weight Gain,"week 1, ORI group, mean, Table 146",−2.24
same,Weight Gain,"week 2, G1 = 800 mg/kg orally twice a day",−6.14
